# Experimental data taken from patent US9617267B2, “Compounds and methods for kinase modulation, and indications therefor” (Plexxikon Inc., priority 2009, dated 2017).
# pIC50: −log10 of the molar value. Where two headings read alike, the source gives them in different places.
# Experiments:
# c-Raf-1 = c-Raf-1 (Homo sapiens, UniProt P04049); assay: c-Raf-1 kinase activity biochemical assay (AlphaScreen, biotin-MEK1 phosphorylation)
# Summary of the method: (§1)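 Biotin-MEK1 phosphorylation measured after 45 min kinase reaction at RT with 100 μM ATP final; compounds tested at 8 points from 0.1 mM DMSO stock.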
# [1] = Relative solubility by turbidity threshold concentration in aqueous buffers (pH 1.5, 4.5, 6.8, 7.4); assay type: physicochemical; settings: for turbidity threshold (L, M, H) 1.4: pH 1.4 [sic] (method: SGF pH 1.5); for turbidity threshold (L, M, H) 4.5: pH 4.5 (SIF); for turbidity threshold (L, M, H) 6.8: pH 6.8 (SIF); for turbidity threshold (L, M, H) 7.4: pH 7.4 (HEPES)
# Summary of the method: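 Solubility class (high >250 μM, moderate 31.3–250 μM, low <31.3 μM) comes from the concentration where absorbance reaches a 0.01 threshold, averaged across 490/535/650 nm. Samples were compound dilutions from DMSO stock, 1 μL into 99 μL buffer at pH 1.5, 4.5, 6.8 or 7.4.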
# CYP2C19 = CYP2C19 (Homo sapiens (Human), UniProt P33261); assay: CYP enzyme inhibition, fluorescent substrate (CEC)
# Summary of the method: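 Human CYP activity was followed by the fluorescence of the metabolized product of a known substrate, which falls as metabolism is inhibited. Compounds from 100 mM DMSO stocks were serially diluted 1:1 over 10 points in co-factor mix and preincubated 10 min at 37 °C. IC50 was fitted from signal versus concentration.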
# CYP2C9 = CYP2C9 (Homo sapiens (Human), UniProt P11712); assay: CYP enzyme inhibition, fluorescent substrate (MFC); settings: read-out: Cyp IC50 2C9; CYP2C9, substrate MFC
# Procedure: (§2) CYP (Cytochrome P450) enzymes are the major drug metabolizing enzymes present in the liver. The inhibition of CYP enzyme activity (IC50) for each of CYP1A2, CYP2C19, CYP2C9, CYP2D6, CYP3A4(BFC) and CYP3A4(BQ) is determined for compounds, where inhibition of metabolism of a known substrate leads to a decrease in the fluorescence of the metabolized product. The fluorescence of the product is monitored as a function of compound concentration.
# (§3) Compounds are dissolved in dimethyl sulfoxide to a concentration of 100 mM. These are diluted 1 μL into 82 μL of acetonitrile. […] These are then serially diluted 1:1 (160 μL to 160 μL co-factor mix) for a total of 10 points. A 10 μL aliquot of this final mixture is dispensed into 384 well assay plates and incubated for 10 minutes at 37° C. […] Assay plates are incubated at 37° C. […] The signal versus compound concentration is used to determine the IC50. The enzymes and substrates for this assay are obtained from BD Biosciences.
# B-Raf [2] = assay: B-Raf kinase activity biochemical assay (AlphaScreen, biotin-MEK1 phosphorylation); settings: for Biochemical activity ratio B/V600E: ratio of IC50 B-Raf / B-Raf V600E; for Biochemical activity ratio B/C: ratio of IC50 B-Raf / c-Raf-1
# Summary of the method: as §1
# B-Raf [3] = target: B-Raf (Homo sapiens (Human), UniProt P15056); assay: as above; settings: B-Raf
# Summary of the method: as §1
# CYP2D6 = CYP2D6 (Homo sapiens (Human), UniProt P10635); assay: CYP enzyme inhibition, fluorescent substrate (AMMC); assay type: in vitro ADME; settings: read-out: Cyp IC50 2D6
# Procedure: as §2
# (§4) Compounds are dissolved in dimethyl sulfoxide to a concentration of 100 mM. These are diluted 1 μL into 82 μL of acetonitrile. An 11 μL aliquot of this solution is then added to 204 μL of cofactor mix (1.3% NADPH Regeneration system Solution A, 1.04% NADPH Regeneration system Solution B from BD Biosciences, 5% acetonitrile and 0.05% dimethyl sulfoxide). These are then serially diluted 1:1 (160 μL to 160 μL co-factor mix) for a total of 10 points. A 10 μL aliquot of this final mixture is dispensed into 384 well assay plates and incubated for 10 minutes at 37° C. Enzyme and substrate mix (10 μL; 0.5 pmol CYP1A2/5 μM CEC; 1.0 pmol CYP2C9/75 μM MFC; 0.5 pmol CYP2C19/25 μM CEC; 1.5 pmol CYP2D6/1.5 μM AMMC; 1.0 pmol CYP3A4/50 μM BFC; or 1.0 pmol CYP3A4/40 μM BQ) is added to these assay plates. Assay plates are incubated at 37° C. (CYP1A2-15 min; CYP2C9-45 min; CYP2C19, 2D6 and 3A4-30 min) and read in a Tecan Safire 2 plate reader (CYP1A2, 2C19 and 3A4 409 ex/460 em; CYP2C9 and 2D6 409 ex/530 em). The signal versus compound concentration is used to determine the IC50. The enzymes and substrates for this assay are obtained from BD Biosciences.
# CYP1A2 = CYP1A2 (Homo sapiens (Human), UniProt P05177); assay: CYP enzyme inhibition, fluorescent substrate (CEC)
# Procedure: as §2, §4
# CYP3A4(BFC) = CYP3A4(BFC) (Homo sapiens (Human), UniProt P08684); assay: CYP enzyme inhibition, fluorescent substrate BFC
# Procedure: as §2, §3
# B-Raf V600E = B-Raf V600E (Homo sapiens (Human), UniProt P15056, V600E); assay: B-Raf V600E kinase activity biochemical assay (AlphaScreen, biotin-MEK1 phosphorylation); settings: for IC50: B-Raf V600E; for Biochemical activity ratio V600E/C: ratio of IC50 B-Raf V600E / c-Raf-1
# Summary of the method: as §1
# [4] = read-out: Cyp IC50 3A4(BFC), CYP3A4, substrate BFC
# CYP2C19, sequence (P33261 whole entry): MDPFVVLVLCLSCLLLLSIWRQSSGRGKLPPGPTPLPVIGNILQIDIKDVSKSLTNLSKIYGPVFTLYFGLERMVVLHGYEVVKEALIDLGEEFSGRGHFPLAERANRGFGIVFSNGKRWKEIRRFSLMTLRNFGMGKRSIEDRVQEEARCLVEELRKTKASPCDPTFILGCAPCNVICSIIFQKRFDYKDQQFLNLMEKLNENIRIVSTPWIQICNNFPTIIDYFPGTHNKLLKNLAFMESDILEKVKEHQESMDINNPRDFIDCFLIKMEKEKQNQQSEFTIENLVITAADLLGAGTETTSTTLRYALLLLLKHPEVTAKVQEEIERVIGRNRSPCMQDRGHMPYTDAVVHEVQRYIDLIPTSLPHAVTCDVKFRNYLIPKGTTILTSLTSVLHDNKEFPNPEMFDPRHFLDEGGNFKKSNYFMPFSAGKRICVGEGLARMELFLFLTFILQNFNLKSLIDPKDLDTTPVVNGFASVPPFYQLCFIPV
# c-Raf-1, sequence (P04049 whole entry, looked up): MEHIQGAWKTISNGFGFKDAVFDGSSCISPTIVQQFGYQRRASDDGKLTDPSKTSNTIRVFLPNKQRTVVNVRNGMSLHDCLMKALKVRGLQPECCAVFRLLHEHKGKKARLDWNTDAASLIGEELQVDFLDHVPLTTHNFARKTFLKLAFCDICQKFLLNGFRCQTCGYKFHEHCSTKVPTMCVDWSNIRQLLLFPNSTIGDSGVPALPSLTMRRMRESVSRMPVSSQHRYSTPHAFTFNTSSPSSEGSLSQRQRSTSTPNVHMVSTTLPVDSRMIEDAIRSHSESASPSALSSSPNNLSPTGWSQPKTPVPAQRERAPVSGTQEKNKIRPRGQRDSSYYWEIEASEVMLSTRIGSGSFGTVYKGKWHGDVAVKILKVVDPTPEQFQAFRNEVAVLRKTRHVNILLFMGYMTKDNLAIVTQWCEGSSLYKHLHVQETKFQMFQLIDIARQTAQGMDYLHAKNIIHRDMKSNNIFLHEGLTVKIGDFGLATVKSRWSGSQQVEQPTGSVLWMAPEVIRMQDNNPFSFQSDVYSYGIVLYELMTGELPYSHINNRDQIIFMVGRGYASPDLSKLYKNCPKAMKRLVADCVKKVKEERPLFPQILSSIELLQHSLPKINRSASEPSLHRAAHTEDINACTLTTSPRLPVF
# CYP2C9, sequence (P11712 whole entry): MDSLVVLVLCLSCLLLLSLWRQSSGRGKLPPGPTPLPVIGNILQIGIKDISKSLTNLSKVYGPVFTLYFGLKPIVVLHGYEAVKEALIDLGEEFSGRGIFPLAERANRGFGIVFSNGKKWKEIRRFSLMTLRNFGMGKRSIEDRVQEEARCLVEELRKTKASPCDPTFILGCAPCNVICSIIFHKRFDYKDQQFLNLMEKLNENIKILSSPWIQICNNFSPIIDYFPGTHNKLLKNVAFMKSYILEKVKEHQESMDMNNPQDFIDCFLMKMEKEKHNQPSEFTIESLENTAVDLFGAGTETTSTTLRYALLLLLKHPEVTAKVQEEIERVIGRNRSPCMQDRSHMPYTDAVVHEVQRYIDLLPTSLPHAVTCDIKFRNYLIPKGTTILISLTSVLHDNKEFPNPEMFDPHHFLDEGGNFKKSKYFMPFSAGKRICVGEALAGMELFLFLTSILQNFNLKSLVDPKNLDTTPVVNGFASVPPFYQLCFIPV
# CYP3A4(BFC), sequence (P08684 whole entry): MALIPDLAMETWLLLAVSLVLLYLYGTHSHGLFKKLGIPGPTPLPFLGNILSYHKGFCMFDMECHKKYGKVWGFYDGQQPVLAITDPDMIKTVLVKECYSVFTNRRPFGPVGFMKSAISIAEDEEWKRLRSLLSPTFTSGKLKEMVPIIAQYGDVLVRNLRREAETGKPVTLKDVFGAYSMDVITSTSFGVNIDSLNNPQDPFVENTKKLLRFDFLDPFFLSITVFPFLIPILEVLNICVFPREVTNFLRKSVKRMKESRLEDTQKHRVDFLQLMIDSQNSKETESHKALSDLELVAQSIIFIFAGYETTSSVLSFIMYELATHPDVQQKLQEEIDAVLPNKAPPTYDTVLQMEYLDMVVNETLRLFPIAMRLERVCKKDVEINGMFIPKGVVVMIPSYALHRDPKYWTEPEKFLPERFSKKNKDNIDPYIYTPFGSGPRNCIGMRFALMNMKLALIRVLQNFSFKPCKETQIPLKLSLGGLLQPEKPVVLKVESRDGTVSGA
# B-Raf V600E, sequence (P15056 whole entry V600E): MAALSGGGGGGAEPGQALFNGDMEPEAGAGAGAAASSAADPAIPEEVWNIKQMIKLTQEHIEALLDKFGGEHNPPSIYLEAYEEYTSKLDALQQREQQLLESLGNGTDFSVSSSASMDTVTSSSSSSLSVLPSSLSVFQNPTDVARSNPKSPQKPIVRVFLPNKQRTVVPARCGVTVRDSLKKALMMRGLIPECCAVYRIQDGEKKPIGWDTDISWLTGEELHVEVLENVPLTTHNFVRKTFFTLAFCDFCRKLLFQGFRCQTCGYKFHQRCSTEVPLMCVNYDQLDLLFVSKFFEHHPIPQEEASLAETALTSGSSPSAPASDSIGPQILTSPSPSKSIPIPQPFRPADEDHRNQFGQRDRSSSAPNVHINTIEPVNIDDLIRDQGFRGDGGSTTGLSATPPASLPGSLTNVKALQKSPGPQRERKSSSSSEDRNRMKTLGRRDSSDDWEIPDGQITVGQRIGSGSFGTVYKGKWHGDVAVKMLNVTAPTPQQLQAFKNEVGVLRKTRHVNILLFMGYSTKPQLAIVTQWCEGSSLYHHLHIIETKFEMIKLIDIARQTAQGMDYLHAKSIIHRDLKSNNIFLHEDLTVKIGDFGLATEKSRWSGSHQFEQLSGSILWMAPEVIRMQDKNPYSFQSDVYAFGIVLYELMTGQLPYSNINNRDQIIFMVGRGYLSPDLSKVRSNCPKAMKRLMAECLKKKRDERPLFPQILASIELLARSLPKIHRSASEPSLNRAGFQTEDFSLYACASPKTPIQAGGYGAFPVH
# B-Raf (Homo sapiens (Human), UniProt P15056), sequence (P15056 whole entry): as the sequence (P15056 whole entry V600E) above, with E600V counted along it
# CYP2D6, sequence (P10635 whole entry): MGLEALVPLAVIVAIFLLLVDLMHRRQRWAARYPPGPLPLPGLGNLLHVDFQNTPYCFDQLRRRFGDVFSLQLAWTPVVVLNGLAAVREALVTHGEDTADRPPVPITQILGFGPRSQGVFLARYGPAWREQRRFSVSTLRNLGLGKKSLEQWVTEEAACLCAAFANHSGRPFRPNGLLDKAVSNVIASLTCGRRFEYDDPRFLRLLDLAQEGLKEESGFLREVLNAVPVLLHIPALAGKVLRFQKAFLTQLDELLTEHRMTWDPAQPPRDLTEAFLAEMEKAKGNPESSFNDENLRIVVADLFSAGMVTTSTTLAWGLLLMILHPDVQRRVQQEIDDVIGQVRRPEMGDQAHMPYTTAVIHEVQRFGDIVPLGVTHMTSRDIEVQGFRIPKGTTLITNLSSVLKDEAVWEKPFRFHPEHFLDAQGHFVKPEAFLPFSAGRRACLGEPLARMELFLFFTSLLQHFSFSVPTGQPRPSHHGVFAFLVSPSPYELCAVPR
# CYP1A2, sequence (P05177 whole entry): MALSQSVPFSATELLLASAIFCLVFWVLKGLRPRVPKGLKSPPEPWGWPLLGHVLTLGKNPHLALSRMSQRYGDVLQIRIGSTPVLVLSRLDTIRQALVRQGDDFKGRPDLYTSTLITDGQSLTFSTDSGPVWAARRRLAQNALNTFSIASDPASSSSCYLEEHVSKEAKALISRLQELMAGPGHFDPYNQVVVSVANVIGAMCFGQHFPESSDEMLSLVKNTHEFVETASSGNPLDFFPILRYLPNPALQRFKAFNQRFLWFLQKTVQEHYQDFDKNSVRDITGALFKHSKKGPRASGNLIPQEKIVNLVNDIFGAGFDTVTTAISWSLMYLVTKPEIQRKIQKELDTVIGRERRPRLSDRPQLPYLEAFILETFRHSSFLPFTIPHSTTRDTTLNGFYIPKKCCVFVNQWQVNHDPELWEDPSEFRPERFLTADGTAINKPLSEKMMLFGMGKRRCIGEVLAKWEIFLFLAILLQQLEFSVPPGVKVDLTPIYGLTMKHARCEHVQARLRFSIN
SMILES,IC50 (c-Raf-1),"turbidity threshold (L, M, H) 1.4 [1]","turbidity threshold (L, M, H) 4.5 [1]",pIC50 (CYP2C19),pIC50 (CYP2C9),Biochemical activity ratio B/V600E (B-Raf [2]),Biochemical activity ratio B/C (B-Raf [2]),IC50 (B-Raf [3]),pIC50 (CYP2D6),"pIC50 (CYP1A2; read-out: Cyp IC50 1A2, CYP1A2, substrate CEC)",pIC50 (CYP3A4(BFC); [4]),IC50 (B-Raf V600E),Biochemical activity ratio V600E/C (B-Raf V600E),"turbidity threshold (L, M, H) 6.8 [1]","turbidity threshold (L, M, H) 7.4 [1]","pIC50 (CYP2C19; read-out: Cyp IC50 2C19, CYP2C19, substrate CEC)","pIC50 (CYP1A2; human, 15 min)",pIC50 (CYP3A4(BFC))
"CCCNc1ncnc2[nH]cc(C(=O)c3c(F)ccc(NS(=O)(=O)c4ccc(C(F)(F)F)cc4)c3F)c12 [P-1032, N-[2,4-Difluoro-3-(4-propylamino-7H-pyrrolo[2,3-d]pyrimidine-5-carbonyl)-phenyl]-4-trifluoromethyl-benzenesulfonamide]",< 0.1 µM,L (low solubility if the threshold concentration is <31.3 μM),L (low solubility if the threshold concentration is <31.3 μM),5.00 to 5.30,< 5.00,0.1-10,>10,< 0.1 µM,< 5.00,< 5.00,< 5.00,< 0.1 µM,>10,,,,,
"CCCS(=O)(=O)Nc1ccc(F)c(C(=O)c2c[nH]c3ncnc(Cl)c23)c1F [P-1033, Propane-1-sulfonic acid [3-(4-chloro-7H-pyrrolo[2,3-d]pyrimidine-5-carbonyl)-2,4-difluoro-phenyl]-amide]",< 0.1 µM,H (high solubility if the threshold concentration is >250 μm),H (high solubility if the threshold concentration is >250 μm),,< 5.00,0.1-10,>10,> 0.1 µM,< 5.00,,< 5.00,< 0.1 µM,0.1-10,H (high solubility if the threshold concentration is >250 μm),H (high solubility if the threshold concentration is >250 μm),< 5.00,< 5.00,
"CCCc1ccc(S(=O)(=O)Nc2ccc(F)c(C(=O)c3c[nH]c4ncnc(Cl)c34)c2F)cc1 [P-1034, N-[3-(4-Chloro-7H-pyrrolo[2,3-d]pyrimidine-5-carbonyl)-2,4-difluoro-phenyl]-4-propyl-benzenesulfonamide]",< 0.1 µM,M (moderate solubility if the threshold concentration is 31.3 μM to 250 μM),M (moderate solubility if the threshold concentration is 31.3 μM to 250 μM),5.00 to 5.30,< 5.00,0.1-10,0.1-10,> 0.1 µM,< 5.00,,,> 0.1 µM,>10,M (moderate solubility if the threshold concentration is 31.3 μM to 250 μM),M (moderate solubility if the threshold concentration is 31.3 μM to 250 μM),,< 5.00,5.00 to 5.30
"O=C(c1c(F)ccc(NS(=O)(=O)c2ccc(C(F)(F)F)cc2)c1F)c1c[nH]c2ncnc(NC3CCCC3)c12 [P-1035, N-[3-(4-Cyclopentylamino-7H-pyrrolo[2,3-d]pyrimidine-5-carbonyl)-2,4-difluoro-phenyl]-4-trifluoromethyl-benzenesulfonamide]",< 0.1 µM,L (low solubility if the threshold concentration is <31.3 μM),L (low solubility if the threshold concentration is <31.3 μM),5.00 to 5.30,< 5.00,0.1-10,>10,< 0.1 µM,< 5.00,,,< 0.1 µM,>10,L (low solubility if the threshold concentration is <31.3 μM),L (low solubility if the threshold concentration is <31.3 μM),,< 5.00,5.00 to 5.30
